Assay: gradient 5% acetonitrile 3 min, to 50% in 2 min, to 85% in 15 min, held 3 min, 100 µL/min
Settings: column: Zorbax Extend-C18 2.1 x 50 mm; eluents: water / acetonitrile, 0.1% formic acid
How it was run: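 Standards, all pure, were combined into mixtures of ~100 molecules and run at 100 μL/min on a Zorbax Extend-C18 column (2.1 × 50 mm, 1.8 μm) with water and acetonitrile, each containing 0.1% formic acid. A coupled quadrupole time-of-flight mass spectrometer operated in positive and negative ionization mode. Retention time values come from computationally picked adduct peaks, each inspected manually.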

RP-LC retention time [s]	Compound
654	COc1ccc(-c2nc(C)cc(C)c2CNS(=O)(=O)c2ccc(F)cc2)cc1
784	CN(CC1CCOC1)C(=O)Nc1cccc(C(F)(F)F)c1 (configuration not stated)
664	O=C(CSc1nnc(CNC(=O)c2cccc(C(F)(F)F)c2)o1)NCC1CCCO1 (configuration not stated)
945	CC1CCC(NC(=O)CN2C(=O)CCCc3cc(S(=O)(=O)N4CCCCC4)ccc32)CC1 (configuration not stated)
623	CCOc1ccc(S(=O)(=O)N2CCCC(C(=O)NCc3ccccn3)C2)cc1 (configuration not stated)
635	CC1CCCN(CCCNC(=O)CN2C(=O)CCn3nc(-c4cn(C)c5ccccc45)cc32)C1 (configuration not stated)
867	COc1ccccc1C1(CNC(=O)Nc2cccc(Cl)c2)CCOCC1
899	COC(=O)c1cc(OCC(=O)Nc2ccc(Cl)cc2)c2cc(OC)ccc2n1
1070	Cc1cccc(-c2csc3c(=O)n(CC(=O)OC(C)(C)C)cnc23)c1
581	O=c1ccc2cc(S(=O)(=O)N3CCN(c4ccccn4)CC3)ccc2[nH]1
1080	COc1ccccc1N1CCN(c2cc(SCC(=O)NCCC3=CCCCC3)ncn2)CC1
658	CNC(=O)c1[nH]c2ccc(F)cc2c1N1CCCC1=O
701	COc1ccc(NC(=O)C2CCCN(c3nnc4ccc(Cl)cn34)C2)c(OC)c1 (configuration not stated)
592	COCCCNC(=O)C1CCCN(c2nccc(C)n2)C1 (configuration not stated)
761	COc1cc(COc2cc(N)c(Cl)cc2C(=O)CCC2CCN(CCNS(C)(=O)=O)CC2)cc(OC)c1
646	Cc1ccc(OCCC2CCNC2)cc1 (configuration not stated)
608	O=C(Nc1ccc2cn[nH]c2c1)C1CC1
700	Cn1nc2c(c1NC(=O)C1CCCN1S(=O)(=O)c1ccc(F)cc1)CCC2 (configuration not stated)

RP-LC retention time [s]	Compound
553	COc1cc(S(=O)(=O)NC2CC(C)(C)NC(C)(C)C2)ccc1F
718	COc1ccc(CNS(=O)(=O)c2cc(-c3[nH]ncc3C(=O)N3CCCC3)oc2C)cc1
793	CN1c2ccc(Cl)cc2C(=O)NC12CCN(C(=O)c1ccccc1)CC2
881	CCn1c(=O)sc2cc(S(=O)(=O)N3CCC(C(=O)NCc4ccccc4OC)CC3)ccc21
566	CC1CCN(c2cc(-c3noc(C(=O)NCCN(C)C)n3)ccn2)CC1
1070	CCSc1nc2ccc(NS(=O)(=O)c3ccc(Cl)cc3)cc2s1
1040	Cc1cc(-c2c(C)sc(C)c2S(=O)(=O)N2CCN(c3cccc(Cl)c3)CC2)n[nH]1
610	COc1ccc(-c2noc(CN3N=NC4C(=O)N(c5cccc(F)c5)C(=O)C43)n2)c(OC)c1 (configuration not stated)
1150	CCCC(=O)N1CCc2c([nH]c3ccccc23)C1c1ccc(C)cc1 (configuration not stated)
870	CCCN(CC(=O)N(Cc1ccco1)CC1CCCO1)C(=O)c1ccccc1OC (configuration not stated)
666	COc1ccc(CCNCC(O)Cn2c3c(c4ccccc42)CCN(C)C3=O)cc1OC (configuration not stated)
714	COc1cccc(CNC(=O)C2CCN(S(=O)(=O)c3cn(C(C)C)cn3)CC2)c1
1110	CCSc1nc2ccc(NS(=O)(=O)c3ccc(F)cc3Cl)cc2s1
729	Cc1ccc(N(C)S(=O)(=O)c2cc(-c3[nH]ncc3C(=O)N(C)C)oc2C)cc1
1030	CC1CCN(S(=O)(=O)c2ccc(-c3nnc(C(=O)NC4CCCC4)o3)cc2)CC1
737	COc1ccc(OCc2noc(CNC(=O)NCc3cccs3)n2)cc1
665	CCOc1ccccc1C(=O)N1CCC(C(=O)NCC(F)(F)F)CC1
621	COc1ccc(C2(C(=O)N3CCN(C(=O)c4cc(-c5cccnc5)n[nH]4)CC3)CC2)cc1

Second part, the compound before the results:

Compound	RP-LC retention time [s]
O=C(Cc1nnc(-c2ccc3ncccc3c2)o1)NCc1ccccc1F	695
CCc1cccc(C)c1Nc1c(-c2ccc(Cl)cc2)nc2ncccn12	978
Cn1nnnc1SCC(=O)NCCCC(=O)Nc1cccc2cccnc12	620
CN1C(=O)C2(CCN(C(=O)Nc3ccc4c(c3)OCCO4)C2)c2ccccc21 (configuration not stated)	748
COc1ccc2c(c1)C1(CCN(C(=O)c3ccc(Cl)cc3)C1)C(=O)N2 (configuration not stated)	767
CCC(C)C(NC(=O)c1sccc1C)C(=O)Nc1nc2ccccc2[nH]1 (configuration not stated)	746
Cc1cc(C)n2nc(SCC(=O)N(C)c3ccccc3)nc2n1	705
O=C1NCCN2CC3(CCN(C(=O)Nc4ccccc4)CC3)CC12 (configuration not stated)	570
CSc1ccc(-c2noc(Cn3c(=O)n(CC4CCCO4)c(=O)c4ccccc43)n2)cc1 (configuration not stated)	1070
CC1CCCN(C(=O)c2cc3c(s2)N(C)CCC3)C1 (configuration not stated)	976
O=C(Nc1cccc2nsnc12)C1CCN(c2ccc(-c3cccs3)nn2)CC1	668
O=C(O)c1nnn(-c2ccc3c(c2)CCC3)c1-c1ccccn1	750
CCCN1C(=O)c2cccnc2Sc2cc(C(=O)N3CCOCC3)ccc21	682
COc1ccc(CCNC(=O)NCC2CCN(Cc3ccsc3)CC2)cc1	565
CCCc1nc(-c2c(C)cc(C)nc2NC(=O)c2ccccc2Cl)no1	934
CCC1CCCCN1C(=O)c1cnc2nc(C)ccc2c1Nc1ccc(CC(=O)O)cc1 (configuration not stated)	598

Compound	RP-LC retention time [s]
Fc1ccc(OCc2nc(-c3ccc4c(c3)ncn4CCN3CCCCC3)no2)cc1	654
COc1ccc(-n2ncc3c(=O)n(Cc4nc(-c5ccc(C(F)(F)F)cc5)no4)cnc32)cc1	1090
O=C(Nc1cccc(C(F)(F)F)c1)N(Cc1ccsc1)C1CC1	1030
CCOc1ccccc1NC(=O)C1CCc2nc(N3CCOCC3)ncc2C1 (configuration not stated)	777
CN(C)c1ccc(NC(=O)c2c(O)c3ccccc3n(-c3ccccc3)c2=O)cc1	1180
Cc1nc(-c2ccc3c(c2)n(CC(=O)N2c4ccccc4CC2C)c(=O)n3C(C)C)no1 (configuration not stated)	989
CC(C)CC(=O)N1CCC2(CC1)c1nccn1-c1ccccc1CN2C	580
CCOC(=O)Cn1cnc2c(-c3ccc(Br)cc3)csc2c1=O	998
Cc1sc(-c2noc(C(C)C)n2)cc1S(=O)(=O)N1CCC(C(=O)NC2CCCCCC2)CC1	1140
O=S(=O)(c1ccc(F)cc1)N1[C@H]2CC[C@@H]1c1cncnc1C2	709
CCOC(=O)CNC(=O)N1CCN(Cc2nc3cccnc3n2-c2ccccc2)CC1	585
CCCN1C(=O)COc2ccc(-c3noc(-c4cccc(Cl)c4)n3)cc21	1350
Cc1ccc(Cn2cc(-c3ccncc3)cc2C(=O)N2CCN(CC(C)C)CC2)cc1	582
CCOc1ccc(Nc2nc(-c3nnn(-c4ccc(OCC)cc4)c3C)ns2)cc1	1130
CCc1cc(C(=O)Nc2cccc(C)c2C)nc2ccnn12	1150

Reference: the METLIN SMRT retention time set (Domingo-Almenara et al. 2019)
